“Also recorded” adds a separate entry of the source.
Legend:
[1] = Stability of UAAs by 1H-NMR without thiols; type: physicochemical; details: dPBS (pH 7.4)/dioxane-d8 (v/v 1:1); rt, 37° C., 60° C.; 72 h
Method: Therefore, 0.1 M NaOH (for E. coli cells) and DMSO (for mammalian cells) are well suited solvents for the preparation of stock solutions for biological experiments. However, stock solutions were stored at −20° C. and thaw 30 min before usage.
Taking the properties of the purified compounds into account, these conditions resemble the nearest physiological conditions possible, as they prevail in biological experiments (living cells, aqueous buffered solutions of proteins) ((a) B. R. Varga, M. Kallay, K. Hegyi, S. Beni, P. Kele, Chemistry 2012, 18, 822-828; b) R. van Geel, G. J. Pruijn, F. L. van Delft, W. C. Boelens, Bioconjugate chemistry 2012, 23, 392-398).

[2] = target: T1, tRNA^Pyl/PylRS^AF (Methanosarcina mazei, UniProt Q8PWY1, Y306A/Y384F); assay: Recombinant expression of GFP^TAG→UAA in E. coli (amber suppression, UAA incorporation); type: cell-based; details: for expression yield of GFP^TAG→UAA (Coomassie SDS-PAGE): compared with TCO; for protein yields / incorporation rate compared with compound 2: E. coli, 1 mM UAA, GFP^Y39TAG; for incorporation rate compared with compound 2: FIG. 12
T1 construct: expressed in transfected cells; host or cells: E. coli Top10 (Invitrogen), co-transformed with pEvolv tRNA^Pyl/PylRS^AF and pBAD GFP^Y39TAG

[3] = 1H-NMR assay of orthogonality of seSPIEDAC and SPIEDAC reactions; type: physicochemical; details: 5 mm dienophile, 10 mm tetrazine, DMSO-d6, 10 min at room temperature
Method: Stock solutions of the dienophiles in DMSO-d6 with a final concentration of 10 mm were prepared. A 20 mm stock of the formic acid salt of (4-(6-methyl-1,2,4,5-tetrazine-3-yl)phenyl)methanamine (termed as methyl tetrazine or Me-Tet-NH2) in DMSO-d6 was prepared, too. As control experiment, either the dienophile or the diene (Me-Tet-NH2) were mixed with DMSO-d6 1:1 (v/v; 760 μl total volume) to yield a final concentration of 5 mm or 10 mm, respectively, in the NMR tube. To confirm whether a dienophile reacts with the diene (Me-Tet-NH2) or not, the corresponding stocks were mixed 1:1 (v/v; 760 μl total volume) to yield a final concentration of 5 mm of the dienophile and 10 mm of the diene in the NMR tube. The samples were incubated for 10 min at room temperature before analyzed by ^1H-NMR.

[4] = FRET assay of labeling kinetics of GFP^TAG→UAA with Me-Tet-Cy3; details: tested experimental conditions of the FRET assay; listed as SCO
Method: For observation of labeling kinetics, GFP^TAG→UAA was expressed with 1-5 (for structures of UAAs see FIG. 1a). E. coli lysate was adjusted to a final GFP concentration of 200 nM based on absorbance spectra. H-Tet-Atto532 7 or Me-Tet-Cy3 8 (see FIG. 4), respectively, were added to a final concentration of 2 μM and fluorescence spectra (excitation at λ=450 nm, emission λ=470-650 nm) were recorded at different time points. The experiments were carried out in a total volume of 2 ml and continuous stirring. 1 mM stocks of the dyes in DMSO were used. Successful labeling of GFP^TAG→UAA was monitored by Foerster resonance energy transfer (FRET) from the GFP-chromophore (serving as a Donor, D) to the synthetic fluorophore (Acceptor, A) when covalently attached. In the individual spectra this is visible by a decrease of GFP-fluorescence (around λ=503-506 nm) and a simultaneous increase of Atto532- (λ=551 nm) or Cy3-fluorescence (λ=563 nm), respectively, over time (shown exemplarily for GFP^TAG→3 (TCO*) in the left panel of FIG. 5). […] Note that time point “0 min” is defined as the time point about 15 s after pipetting the dye to the protein solution. […]

[5] = system: HEK293T cells; assay: Pulse-chase dual-color labeling of insulin receptor IR^TAG; type: cell-based
Method: For insulin receptor experiments, HEK293T cells were maintained in Dulbecco's Modified Eagle's Medium—DMEM (high glucose—4.5 g/l) supplemented with 10% FBS (Sigma), 1% L-glutamine (Invitrogen, Palo Alto, USA) and 1% Pen-Strep (Invitrogen) in a 5% CO2 atmosphere at 37° C. Cells were passaged every 2-3 days up to 15-20 passages. For microscopy, cells were seeded on 4-well chambered Lab-Tek #1.0 borosilicate coverglass (ThermoFisher, Ma USA) 15-24 h prior to transfections. Transfections were performed with JetPrime reagent (PegLab, Erlangen, Germany) according to the manufacturer's recommendations. In short, for double-transfections with IR and tRNA^Pyl/PylRS^AF vectors we used plasmids in 1:1 ratio keeping total amount of DNA at 1 μg. UAAs were added after the transfections in two pulses (see FIG. 2a). UAAs were dissolved in DMSO (250 mM stock of PrK; 100 mM stock of TCO*) or 20% formic-acid DMSO (500 mM stock of BCN; 250 mM stock of SCO). Each UAA was used at a final concentration of 250 μM. After the 2nd UAA pulse, cells were rinsed with fresh medium and kept overnight in DMEM.
In the morning following transfections, medium was exchanged to serum-free high glucose DMEM […], in which all the subsequent washing and labeling steps were also performed. The transfected cells were then labeled according to the following protocols. […]

[6] = Long time stability of the covalent bond in labeled proteins (FRET); details: labeled with Me-Tet-Cy3, excess filtered off, 4 h to 76 h
Method: To proof the stability of the formed covalent bonds between TCO* and the dye-Tet in a SPIEDAC reaction, long time FRET experiments were carried out. Basically, the same FRET assay as described above was used to test whether the fluorophores stays covalently attached to the protein or not over a period of 36 h. 200 nM GFP^TAG→3 were separately reacted with 2 μM Me-Tet-Cy3 at room temperature (rt) and the ratio between D and A fluorophore was followed over time.
In another experiment, Ni-NTA-purified GFP^TAG→UAA (1-4) was labeled with Me-Tet-Cy3 (2 h, 37° C.). Excess Me-Tet-Cy3 was filtered off (˜2 h). 200 nM labeled GFP^TAG>UAA+Cy3 (with 1-4) were followed over time by FRET as described above. Note that the first data point was taken approximately 4 h after adding the tetrazine to the proteins. No significant changes between the FRET ratio measured after 4 h and after 76 h were observed (FIG. 7).

[7] = Stability of trans-cyclooctenyl isomers against thiols by 1H-NMR; type: physicochemical; details: two equivalents of cysteamine, 60° C., ten days (240 h)
Method: In order to test for stability against thiols, UAAs 2-4 were separately combined with two equivalents of cysteamine hydrochloride in dPBS/dioxane-d8 (v/v 1:1), NMR tubes were tightly sealed, and incubated at rt, 37° C., or 60° C. ^1H-NMR spectra were measured after 24 h of incubation and later time points (in case of 3). […] For all three trans-cyclooctene-containing UAAs, conversion of the trans-cyclooctenyl-form to its corresponding cis-cyclooctenyl-form was observed (FIG. 8b). […] These numbers were obtained by comparing the integrals for the double bond protons and the —CHO— protons (if possible/applicable) before and after the heat treatment as it was done before by others for similar compounds ((a) B. R. Varga, M. Kallay, K. Hegyi, S. Beni, P. Kele, Chemistry 2012, 18, 822-828; b) R. van Geel, G. J. Pruijn, F. L. van Delft, W. C. Boelens, Bioconjugate chemistry 2012, 23, 392-398; J. Yang, J. Seckute, C. M. Cole, N. K. Devaraj, Angew Chem Int Ed Engl 2012, 51, 7476-7479). Observations at different temperatures were consistent with the expectation that the higher the temperature, the faster/easier the isomerization. Isomerization to the cis-form continued in samples kept at rt or 37° C. after 24 h (data not shown).

T1 sequence (Q8PWY1 whole entry Y306A/Y384F): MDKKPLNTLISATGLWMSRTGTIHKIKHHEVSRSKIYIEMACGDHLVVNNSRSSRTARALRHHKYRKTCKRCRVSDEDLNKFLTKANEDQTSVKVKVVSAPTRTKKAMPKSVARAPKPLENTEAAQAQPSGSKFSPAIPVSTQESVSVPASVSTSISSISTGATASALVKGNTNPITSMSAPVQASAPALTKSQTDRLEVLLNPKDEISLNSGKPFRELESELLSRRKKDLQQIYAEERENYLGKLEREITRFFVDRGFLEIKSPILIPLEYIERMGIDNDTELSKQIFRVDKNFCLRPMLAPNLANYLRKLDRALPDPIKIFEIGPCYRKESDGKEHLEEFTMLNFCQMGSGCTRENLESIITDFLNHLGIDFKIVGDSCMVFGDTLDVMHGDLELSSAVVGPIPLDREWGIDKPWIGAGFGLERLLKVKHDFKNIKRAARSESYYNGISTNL

Row | Compound | stability by 1H-NMR [1] | expression yield of GFP^TAG→UAA (Coomassie SDS-PAGE) [2] | protein yields [2] [mg/L] | incorporation rate compared with compound 2 [2] | other results
1 | N[C@@H](CCCCNC(=O)OC1CC/C=C/CCC1)C(=O)O (stereo partly drawn) [Compound 2, N-ε-((trans-Cyclooct-4-en-1-yloxy)carbonyl)-L-lysine] | remained un-changed | – | – | – | –
2 | N[C@@H](CCCCNC(=O)OC1C/C=C/CCCC1)C(=O)O (stereo partly drawn) [Compound 4, N-ε-((trans-Cyclooct-3-en-1-yloxy)carbonyl)-L-lysine] | remained un-changed | higher expression yields than the TCO | – | – | –
3 | OC1CC2C=CC1C2 (centres unmarked) [5-norbornene-2-ol] | – | – | – | – | reaction with tetrazine Me-Tet-NH2 by 1H-NMR [3]: No new signals were detected
4 | N[C@@H](CCCCNC(=O)OC1C#CCCCCC1)C(=O)O (stereo partly drawn) [Compound 5, N-ε-((Cyclooct-2-yn-1-yloxy)carbonyl)-L-lysine] | – | – | – | – | Reactivity with Me-Tet (in words) [4]: basically no detectable reactivity; also recorded: no substantial reactivity with Me-Tet; labeling of IR (confocal) ([5]; TCO* and SCO, Me-Tet-Cy5 then H-Tet-Atto532, 10 min): bright labeling of the IR in the plasma membrane for both channels
5 | N[C@@H](CCCCNC(=O)OC1/C=C/CCCCC1)C(=O)O (stereo in doubt) [Compound 3a, N-ε-((trans-Cyclooct-2-en-1-yloxy)carbonyl)-L-lysine] | – | higher expression yields than the TCO | 0.4 | more readily incorporated than compound 2 by about a factor of two | –
6 | N[C@@H](CCCCNC(=O)OC1/C=C/CCCCC1)C(=O)O (stereo in doubt) [Compound 3b, N-ε-((trans-Cyclooct-2-en-1-yloxy)carbonyl)-L-lysine] | – | higher expression yields than the TCO | 0.4 | more readily incorporated than compound 2 by about a factor of two | –
7 | N[C@@H](CCCCNC(=O)OC1/C=C/CCCCC1)C(=O)O (stereo partly drawn) [Compound 3, N-ε-((trans-Cyclooct-2-en-1-yloxy)carbonyl)-L-lysine] | remained un-changed | higher expression yields than the TCO | 0.4 | more readily incorporated than compound 2 by about a factor of two | stability of covalent bond, FRET ratio over time [6]: consistent FRET values over time; trans-form left after ten days [7]: more 3 (TCO*) was left in its trans-form than for 2 (TCO) and 4 (TCO^#) after 24 h
8 | N[C@@H](CCCCNC(=O)OCC1C2CCC#CCCC21)C(=O)O (some centres unmarked) [Compound 1] | – | – | – | – | stability of covalent bond, FRET ratio over time [6]: consistent FRET values over time; labeling of IR (confocal) ([5]; TCO* pulse, BCN chase, Me-Tet-Cy5, quencher, H-Tet-Atto532): no signal in the Atto532 channel was observed
